Laboratory results taken from publication PMC2891523 (The Journal of organic chemistry, 2010).

Molecular target: T1, α-TTP (tocopherol transfer protein) (Homo sapiens, UniProt P49638)
T1 sequence (P49638 1-278): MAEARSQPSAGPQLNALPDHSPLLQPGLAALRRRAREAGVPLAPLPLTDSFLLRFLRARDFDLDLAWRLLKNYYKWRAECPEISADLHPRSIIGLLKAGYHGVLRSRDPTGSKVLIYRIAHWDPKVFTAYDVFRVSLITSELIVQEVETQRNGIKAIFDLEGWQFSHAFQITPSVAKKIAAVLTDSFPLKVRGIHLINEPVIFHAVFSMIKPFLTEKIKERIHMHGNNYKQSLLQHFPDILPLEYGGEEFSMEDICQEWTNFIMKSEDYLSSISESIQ
Assay: fluorescence titration of purified α-TTP, one-site binding fit

Kd: 232 ± 10 nM
SMILES: CC1=CC(C)=[N+]2C1=Cc1ccc(CCCCCC[C@]3(C)CCc4c(C)c(O)c(C)c(C)c4O3)n1[B-]2(F)F [10a, (R)-5,5-difluoro-7-(6-(6-hydroxy-2,5,7,8-tetramethylchroman-2-yl)hexyl)-1,3-dimethyl-5H-dipyrrolo[1,2-c:1′,2′-f][1,3,2]diazaborinin-4-ium-5-uide]
